Measured values published in US6251903A, “Alkyl, azido, alkoxy, and fluoro-substituted and fused quinoxalinediones and the use thereof as glycine receptor antagonist” (priority 2000, dated 2001).
Entries after “also recorded” stand apart in the source; their conditions may differ. Where two headings read alike, the source gives them in different places.

What was measured:
neurons = conditions: literature, cited from earlier work
[1] = test system: glycine binding site of the NMDA receptor; conditions: literature, cited from earlier work
[2] = test system: non-NMDA glutamate receptors; conditions: literature, cited from earlier work
animals = conditions: literature; cited from earlier work
[3] = literature, cited from earlier work
[4] = target: NMDA receptor glycine sites; assay: electrophysiological assay, cloned rat NMDA receptors expressed in Xenopus oocytes; assay type: cell-based; conditions: Table II; from electrophysiology using Xenopus oocytes
Text: (§1) The binding affinities of quinoxaline-2,3-diones at NMDA receptor glycine sites also were estimated by electrophysiological assays with either cloned rat NMDA receptors expressed in Xenopus oocytes, or non-NMDA receptors expressed in oocytes by whole rat brain poly(A)^+ RNA. […] For NMDA receptors Ki values were approximated by averaging values at three subtype combinations (NR1A/NR2A, NR1A/NR2B, and NR1A/NR2C).

glycine binding site = glycine binding site (Rattus norvegicus, UniProt P35439); assay: affinity for the glycine binding site / glycine/NMDA receptor (Ki; method not stated)
Text: as §1

mice [5] = assay: anticonvulsant activity in maximum electroshock seizure (MES) experiments in mice; assay type: in vivo, male Swiss/Webster mice
Method: The seizure stimulus parameters were: 50 mA, 60 Hz, rectangular pulse, width 0.8 msec, duration 200 msec. Tonic hind limb extension observed after application of the electrical stimulus was recorded as occurrence of seizure. The drug was applied i.v. as an aqueous Tris (Tromethamine) solution.

mice [6] = assay: formalin test for pain in Swiss Webster mice; assay type: in vivo, male Swiss Webster mice; conditions: i.p., early and late phases
Method: The effects of the glycine receptor antagonists of the present invention on chronic pain can be evaluated as follows. Male Swiss/Webster mice weighing 25-35 grams are housed five to a cage with free access to food and water and are maintained on a 12 hour light cycle (light onset at 0800h). The glycine receptor antagonist is dissolved in DMSO at a concentration of 140 and 5-40 mg/mL, respectively. DMSO is used as vehicle control. All drugs=are injected intraperitoneally (1 μl/g). […] Mice are observed in a plexiglass cylinder, 25 cm in diameter and 30 cm in height. The plantar surface of one hindpaw is injected subcutaneously with 20 μl of 5% formalin. The degree of pain is determined by measuring the amount of time the animal spends licking the formalin-injected paw during the following time intervals: 0-5' (early phase); 5'-10', 10'-15' and 15'-50' (late phase). To test whether the glycine/excitatory amino acid antagonists prevent chronic pain in the test animals, vehicle (DMSO) or drugs dissolved in vehicle at doses of 1 mg/kg to 40 mg/kg are injected intraperitoneally 30 minutes prior to the formalin injection. For each dose of drug or vehicle control at least six animals are used.
Briefly, after a 60 minute accommodation period in plexiglass jars, mice were weighed and injected intraperitoneally (i.p.) with NDMQX (1-20 mg/kg; N=6-10 mice/dose). Controls were injected with DMSO (1 mL/kg, i.p.). Thirty min later, mice were injected with formalin (20 μl of 5% solution) just under the skin of the right hind paw, transferred to the plexiglass jars, and immediately observed for licking or biting of the injected paw for 1 hr. The amount of time that each mouse spent licking the injected paw was measured at 0-5 min (early phase) and 15-50 min (late phase).
In the formalin test, following a 1 hr accommodation period, mice were injected i.p. with NMCQX (1.00-10.00 mg/kg, N=7-13 mice/dose) or NDMQX (0.5-20.00 mg/kg, N=8-9 mice/dose). Control mice were injected with Tris (0.5 M) or Bis-Tris (0.2 M), respectively. Mice were then injected with formalin. […] The amount of time that each mouse spent licking and/or biting the injected paw was recorded for 1 hr.

mice [7] = assay: MES test with i.p. NMCQX or NDMQX (Example 51); assay type: in vivo, Swiss Webster mice; conditions: NMCQX 1.25-7.50 mg/kg, NDMQX 5.00-15.00 mg/kg
Method: In the MES test, mice were injected i.p. with NMCQX (1.25-7.50 mg/kg) or NDMQX (5.00-15.00 mg/kg). Control mice were injected with Tris (0.05 M) or Arginine (0.1 M), respectively. Seizures were then induced by applying a rectangular pulse, 50 mA, 60 pulses/sec, 0.8 msec pulse width, and 0.2 sec train length, at the time of the drugs' peak effect.

rats = assay: rat model of permanent focal cerebral ischemia, continuous intravenous infusion; assay type: in vivo, male Sprague-Dawley rats
Method: Male Sprague-Dawley rats (290-320 g) were […] and maintained under anesthesia with ±2% of halothane. […] The common carotid arteries (CCA) were isolated, and a loose silk ligature Was placed around each CCA. A vertical skin incision was made between the left orbit and the auditory canal, posterior part of zygoma removed and small opening (2.0/2.5 mm) drilled dorsorostrally to the foramen ovale under constant saline irrigation. The dura was opened with a microsurgical hook and the brain gently retracted with a fine spatula to expose the bifurcation of the internal carotid artery and the middle cerebral artery. The ipsilateral CCA was ligated and the MCA coagulated from its origin to the olfactory tract Two hours after MCA occlusion, the clip from the contralateral CCA was removed.
NDMQX was dissolved in 0.1 M L-arginine and 5% glucose and infused as a slow 10 mg/kg i.v. bolus (immediately after MCA occlusion) followed by 7 mg/kg/h infusion for 22 hours.
Brains were sliced into 2 mm blocks and stained with tetrazolium red (2,3,5-triphenyl tetrazolium chloride). The areas of brain damage were assessed using an image analyzer (Image-1, Universal Imaging Corporation, PA) to determine the volume of cortical and subcortical infarction by integration of areas and the distance between each level.
For the drug administration, the NMCQX was dissolved in 0.05 Tris and 5% glucose. It was infused as a slow 2 mg/kg i.v. bolus (immediately after MCA occlusion) followed by 1.4 mg/kg/h infusion for 22 hours.

DBA-2 mice = assay: audiogenic seizure model in DBA-2 mice; assay type: in vivo; conditions: Mus musculus, ip, 0.5 h; i.p. injection
Text: The anticonvulsant activity of the glycine and excitatory amino acid antagonists can be assessed in the audiogenic seizure model in DBA-2 mice as follows. DBA-2 mice can be obtained from Jackson Laboratories, Bar Harbor, Maine. These mice at an age of <27 days develop a tonic seizure within 5-10 seconds and die when they are exposed to a sound of 14 kHz (sinus wave) at 110 dB (Lonsdale, D., Dev. Pharmacol. Ther. 4:28 (1982)). […] 21 day old DBA-2 mice are used for all experiments. Compounds are given intraperitoneally in either saline, DMSO, or polyethyleneglycol-400. Appropriate solvent controls are included in each experiment. Dose response curves are constructed by giving increasing doses of drug from 1 mg/kg to 100 mg/kg. Each dose group (or solvent control) consists of at least six animals.

mice [8] = assay: anticonvulsant activity in maximum electroshock seizure (MES) experiments in mice; assay type: in vivo, male Swiss/Webster mice; conditions: Mus musculus, ip; Table III; i.p. injection
PCP receptor = conditions: Wong et al. 1986; cited from earlier work
[9] = test system: dorsal horn nociceptive neurons; conditions: literature; cited from earlier work
[10] = listed as 6-cyano-7-nitroquinoxaline-2,3-dione
[11] = listed as 6,7-dinitroquinoxaline-2,3-dione

N#Cc1cc2nc(O)c(O)nc2cc1[N+](=O)[O-] [6-cyano-7-nitro-1,4-dihydroquinoxaline-2,3-dione]
neuroprotective efficacy (neurons): neuroprotective in vitro | glycine site antagonism or affinity (words) [1]: can antagonize the responses to L-glutamate by interacting with the glycine recognition sites; also recorded: inhibit [^3 H] glycine binding to the strychnine-insensitive glycine binding sites; also recorded: antagonizes NMDA receptor-mediated responses by a competitive interaction of the glycine binding site | glycine site antagonism or affinity (words) [1, 10]: glycine antagonists | antagonism at kainate / AMPA / non-NMDA receptors [2]: more potent antagonists of kainate than glycine | antagonism at kainate / AMPA / non-NMDA receptors [2, 10]: AMPA | antagonism at kainate / AMPA / non-NMDA receptors ([2]; listed as 7-cyano-6-nitro-1,4-dihydroquinoxaline-2,3-dione): potent non-NMDA glutamate receptor antagonists | in vivo activity (animals): antagonize responses mediated by NMDA-associated glycine recognition sites in vivo | penetration of the blood/brain barrier (words) [3]: incapable of crossing the blood/brain barrier after i.p. administration | penetration of the blood/brain barrier (words) ([3]; listed as CNQX): poor access to the central nervous system | penetration of the blood/brain barrier (words) ([3]; listed as cyano-7-nitro-1,4-dihydroquinoxaline-2,3-dione): poor access to the central nervous system

Cc1c(Cl)cc2[nH]c(=O)c(=O)[nH]c2c1[N+](=O)[O-] [NMCQX, 7-Chloro-6-methyl-5-nitro-1,4-dihydroquinoxaline-2,3-dione]
Ki [4]: 5 nM | Ki (glycine binding site): 5 nM | times better than 6,7-dichloro-5-nitro-1,4-dihydroquinoxaline-2,3-dione as anticonvulsant (mice [5]; MES ED50 ratio): 4-5 times | ED50 as an anticonvulsant in the MES experiment in mice (mice [5]; route not stated): 1 mg/kg | antinociceptive effect in the formalin test (mice [6]): dose-dependent antinociceptive effect in both phases | protection from electroshock seizures (mice [7]): dose-dependently protected mice from generalized clonic-tonic seizures | reduction in cortical infarct volume (rats; 2 mg/kg i.v. bolus then 1.4 mg/kg/h for 22 hours, p<0.05): 75% | neuroprotection (rats; rat focal ischemia): significant neuroprotection

O=c1[nH]c2cc([N+](=O)[O-])c([N+](=O)[O-])cc2[nH]c1=O [6,7-dinitro-1,4-dihydroquinoxaline-2,3-dione]
neuroprotective efficacy (neurons): neuroprotective activity | neuroprotective efficacy (neurons; [11]): neuroprotective in vitro | glycine site antagonism or affinity (words) [1]: can antagonize the responses to L-glutamate by interacting with the glycine recognition sites; also recorded: inhibit [^3 H] glycine binding to the strychnine-insensitive glycine binding sites | glycine site antagonism or affinity (words) [1, 11]: glycine antagonists | antagonism at kainate / AMPA / non-NMDA receptors [2]: more potent antagonists of kainate than glycine; also recorded: potent non-NMDA glutamate receptor antagonists | antagonism at kainate / AMPA / non-NMDA receptors [2, 11]: AMPA | in vivo activity (animals): antagonize responses mediated by NMDA-associated glycine recognition sites in vivo | penetration of the blood/brain barrier (words) ([3]; listed as DNQX): poor access to the central nervous system

O=c1[nH]c2c(F)c(F)c(F)c(F)c2[nH]c1=O [F F F F, 5,6,7,8-tetrafluoro-1,4-dihydroquinoxaline-2,3-dione]
Ki (glycine binding site; Table III, read-out: Ki): 2190 nM | ED50 (DBA-2 mice): 9 mg/kg | ED50 (mice [8]): 20 mg/kg

C[C@]12N[C@H](Cc3ccccc31)c1ccccc12 [MK801]
Kd (PCP receptor): ~3 nM | neuroprotective efficacy (neurons): have neuroprotective efficacy both in vitro and in vivo

O=C(O)c1cc(O)c2ccc(Cl)cc2n1 [7-Cl-kynurenic acid]
glycine site antagonism or affinity (words) [1]: relatively high receptor binding affinity in vitro | blockade of "wind up" [9]: blocked the "wind up" phenomenon | penetration of the blood/brain barrier (words) [3]: cannot penetrate the blood/brain barrier

O=c1[nH]c2cc(F)c(F)c(Br)c2[nH]c1=O [Br F F H]
Ki (glycine binding site; Table III, read-out: Ki): 2300 nM | ED50 (DBA-2 mice): 30 mg/kg
